Assay results as given in patent US20130059850A1, “AZA-INDOLE DERIVATIVES USEFUL AS MODULATORS OF FAAH” (MERCK SHARP & DOHME CORP., priority 2010, published 2013).

Tests used:
[1] = target: T1, human FAAH (Fatty Acid Amide Hydrolase) (Homo sapiens, UniProt O00519); test: FAAH whole cell assay on CHO cells expressing human FAAH (human WC), AAMCA fluorescent substrate; format: cell-based; settings: human FAAH_CHO whole cell
T1 construct: The full length FAAH was subcloned into the mammalian expression vector, pcDEF.neo, using XbaI and EcoRI restriction sites; expressed in transfected cells
T1 sequence (O00519 1-579): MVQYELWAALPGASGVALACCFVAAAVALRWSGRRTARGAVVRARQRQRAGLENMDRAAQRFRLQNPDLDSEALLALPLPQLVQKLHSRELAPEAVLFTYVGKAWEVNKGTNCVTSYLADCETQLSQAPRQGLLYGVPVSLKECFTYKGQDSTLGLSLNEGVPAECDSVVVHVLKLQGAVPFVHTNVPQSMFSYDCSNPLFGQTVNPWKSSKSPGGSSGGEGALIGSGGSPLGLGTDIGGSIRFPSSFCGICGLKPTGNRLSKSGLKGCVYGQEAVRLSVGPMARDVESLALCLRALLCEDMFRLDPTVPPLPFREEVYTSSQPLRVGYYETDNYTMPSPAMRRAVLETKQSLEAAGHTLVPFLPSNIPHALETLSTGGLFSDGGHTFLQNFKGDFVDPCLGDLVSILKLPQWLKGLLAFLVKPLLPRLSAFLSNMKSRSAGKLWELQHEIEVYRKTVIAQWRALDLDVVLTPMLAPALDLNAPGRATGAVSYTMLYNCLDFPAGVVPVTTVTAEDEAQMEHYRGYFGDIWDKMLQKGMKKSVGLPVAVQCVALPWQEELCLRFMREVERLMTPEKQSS
Text: (§1) To assist in assay development stable cell lines for human, murine and rat full length FAAH were developed. Human FAAH cDNA (Accession No: NM_001441.1) was purchased from Origene (Rockville, Md.). The full length FAAH was subcloned into the mammalian expression vector, pcDEF.neo, using XbaI and EcoRI restriction sites and used for stable cell line generation.
Murine (accession number NM_010173) and Rat FAAH (accession number NM_024132) was amplified by reverse transcriptase polymerase chain reaction (RT-PCR) from brain cDNA (BD Biosciences, San Jose, Calif.) using primers 1 and 2 or primers 1 and 3 respectively (see Table). The resulting PCR product was ligated into pCR4 TOPO and DNA sequence confirmed. The full length murine FAAH was subcloned into the mammalian expression vector, pcDEFneo using either EcoRI (murine) or KpnI and EcoRI (rat) restriction sites. Chinese hamster ovary cells (CHO) were transfected following manufacturers protocol (AMAXA). Forty eight hours post transfection, cells were trypsinized and transferred to 96 well plates in Iscove's DMEM media supplemented with 2 mM Glutamine, 10% fetal calf serum, 1 mg/ml geneticin and HT Supplement (0.1 mM sodium hypoxanthine, 0.016 mM thymidine) in order to isolate single clones. Following selection in geneticin, individual clones were selected and FAAH activity was assessed using a whole cell fluorescent anandamide assay, modified from Ramarao et al (2005). Following removal of tissue culture media cells were dislodged following addition of Cellstripper (Mediatech, Inc. Manassas, Va.) and transferred to 96 well black clear bottom assay plate, centrifuged at 1,000 rpm for 3 mins and media removed and replaced with assay buffer (50 mM Tris pH8.0, 1 mM EDTA, 0.1% fatty acid free BSA). The reaction was initiated by addition of fluorescent substrate, AMC Arachidonoyl Amide (Cayman Chemical, Ann Arbor, Mich.) to 1 μM and reaction allowed to proceed for 2 hours at room temperature. Release of fluorescence was monitored in a CytoFluor Multiplate Reader. Cells expressing the highest amount of FAAH activity were selected for study with FAAH inhibitors.
(§2) (American Radiolabeled Chemicals; 1 mCi/ml) with FAAH (Life Sciences (1995), 56, 1999-2005 and Journal of Pharmacology and Experimented Therapeutics (1997), 283, 729-734), Analytical. Biochemistry (2003), 318, 270-5. In addition, routine assays were performed monitoring hydrolysis of arachidonyl-7-amino-4-methylcoumarin amide (AAMCA) by following increase in fluorescence upon release of 7-amino 4-methyl coumarin (λEX=355 nm, μEM=460 nm). Analytical. Biochemistry (2005). 343, 143-51
Assays are performed on either cell lysate or microsome fractions prepared as described or in whole cell format employing either the fluorescent substrate AAMCA (Cayman chemical, Ann Arbor, Mich.,) or ^3H-anandamide ([ETHANOLAMINE-1-3H] American Radiolabeled Chemicals; 1 mCi/ml). The cell lysate or microsome assay is performed in black PerkinElmer OptiPlates-384F by adding FAAH_CHO (whole cell (human whole cell or human WC), cell lysate (human cell lysate or human LY) or microsome) in assay buffer (50 mM Phosphate, pH 8.0, 1 mM EDTA, 200 mM KCl, 0.2% glycerol, 0.1% fatty acid free BSA) to each well, followed by either DMSO or compound and allowed to incubate at 22-25° C. for fifteen minutes. AAMCA substrate was used to achieve a final concentration of 1 μM and reaction allowed to proceed at room temperature for 1-3 hours. Fluorescent release as a measure of FAAH activity was monitored by reading the plate in a Envision plate Reader (Ex: 360/40 nM; Em: 460/40 nM). Whole cell assay is conducted with cells harvested after rinsing tissue culture flasks three times with Ca^++Mg^++ free PBS, incubating for […] in Enzyme free dissociation media and centrifuging for 5 minutes at 1,000 rpm in table top centrifuge. […]

[2] = target: T1, human FAAH (Fatty Acid Amide Hydrolase); test: FAAH enzyme assay on CHO cell lysate expressing human FAAH (human LY), AAMCA fluorescent substrate; format: biochemical; settings: human FAAH_CHO cell lysate
Text: as §1
CHO cells expressing FAAH were used to prepare either crude cell lysate or microsome fractions. To harvest cells, tissue culture media was decanted, the monolayer washed three times with Ca^++Mg^++ free PBS and cells recovered after […] in enzyme free dissociation media (Millipore Corp, Billerica, Mass.). Cells were collected by centrifuging at 2000 rpm for 15 min. and the cell pellet re-suspended with 50 mM HEPES (pH 7.4) containing 1 mM EDTA and the protease inhibitors aprotinin (1 mg/ml) and leupeptin (100 μM). The suspension was sonicated at 4° C. and the cell lysate recovered after centrifuging at 12,000×g (14,600 rpm, SS34 rotor) for 20 min at 4° C. to form a crude pellet of cell debris, nuclei, peroxisomes, lysosomes, and mitochondria; the supernatant or cell lysate was used for FAAH enzyme assay. In some cases, microsomes fractions enriched in FAAH were prepared by centrifuging the cell lysate further at 27,000 rpm (100,000×g) in SW28 rotor for 50 minutes at 4° C. The pellet containing FAAH-enriched microsomes was re-suspend in 50 mM HEPES, (pH 7.4) 1 mM EDTA, and any remaining DNA sheared by passage of material through a 23 gauge needle and aliquots of enzyme were store at −80° C. prior to use.
as §2
Assays are performed on either cell lysate or microsome fractions prepared as described or in whole cell format employing either the fluorescent substrate AAMCA (Cayman chemical, Ann Arbor, Mich.,) or ^3H-anandamide ([ETHANOLAMINE-1-3H] American Radiolabeled Chemicals; 1 mCi/ml). The cell lysate or microsome assay is performed in black PerkinElmer OptiPlates-384F by adding FAAH_CHO (whole cell (human whole cell or human WC), cell lysate (human cell lysate or human LY) or microsome) in assay buffer (50 mM Phosphate, pH 8.0, 1 mM EDTA, 200 mM KCl, 0.2% glycerol, 0.1% fatty acid free BSA) to each well, followed by either DMSO or compound and allowed to incubate at 22-25° C. for fifteen minutes. AAMCA substrate was used to achieve a final concentration of 1 μM and reaction allowed to proceed at room temperature for 1-3 hours. Fluorescent release as a measure of FAAH activity was monitored by reading the plate in a Envision plate Reader (Ex: 360/40 nM; Em: 460/40 nM). Whole cell assay is conducted with cells harvested after rinsing tissue culture flasks three times with Ca^++Mg^++ free PBS, incubating for […] in Enzyme free dissociation media and centrifuging for 5 minutes at 1,000 rpm in table top centrifuge. Cells are resuspended in assay buffer at desired cell number in (4×10^4 cells/assay in 96-well format; 1×10^4 cells/assay in 384-well format) and assayed as described.

| IC50 [1] [nM] | IC50 [2] [nM] | SMILES |
| --- | --- | --- |
| 47.4 | 9.47 | COc1ncc(-c2[nH]c3ncccc3c2Sc2ccc(Cl)cc2)c(OC)n1 [Example B14] |
| 370 | 110 | CC(=O)Nc1ccc(-c2[nH]c3ncccc3c2Sc2ccc(Cl)cc2)cc1 [Example A20] |
| 128 | 30.4 | COc1ccc(-c2[nH]c3ncccc3c2Sc2ccc(Cl)cn2)cn1 [Example A24] |
| 10.7 | 2.15 | Clc1ccc(Sc2c(-c3ccc4[nH]ncc4c3)[nH]c3ncccc23)cc1 [Example I3, 5-{3-[(4-chlorophenyl)sulfanyl]-1H-pyrrolo[2,3-b]pyridin-2-yl}-1H-indazole] |
| 76.7 | 28.8 | OCCn1cccc2c(Sc3ccc(Cl)cc3)c(-c3ccc4c(c3)OCO4)nc1-2 [Example E12] |
| 107 | 15.2 | O=C(NCc1ccc(O)c(O)c1)c1[nH]c2ncccc2c1Sc1ccc(Cl)cc1 [Example C11] |
| 3220 | 497 | Clc1ccc(Sc2c3cccn(CCn4cccc4)c-3nc2-c2ccc3c(c2)OCO3)cc1 [Example E22] |
| 17.1 | 12.3 | O=C1NCc2cc(-c3[nH]c4ncccc4c3Sc3ccc(Cl)cn3)ccc21 [Example A34] |
| 202 | 59 | CC1(C)CC(NCc2[nH]c3ncccc3c2Sc2ccc(Cl)cc2)CC(C)(C)O1 [Example J12] |
| 21.9 | 4.39 | NS(=O)(=O)c1ccc(-c2[nH]c3ncccc3c2Sc2ccc(Cl)cc2)cc1 [Example A7, 4-{3-[(4-chlorophenyl)sulfanyl]-1H-pyrrolo[2,3-b]pyridin-2-yl}benzenesulfonamide] |
| 132 | 16.9 | OCc1ccc(-c2[nH]c3ncccc3c2Sc2ccc(Cl)cc2)cc1 [Example A29] |
| 1300 | 168 | OCCn1cccc2c(Sc3ccc(Cl)cn3)c(-c3ccc4c(c3)OCCO4)nc1-2 [Example E17] |
| 9.16 | 3.83 | O[C@H]1CC[C@H](c2[nH]c3ncccc3c2Sc2ccc(Cl)cc2)CC1 [Example D5, trans-4-{3-[(4-chlorophenyl)sulfanyl]-1H-pyrrolo[2,3-b]pyridin-2-yl}cyclohexanol] |
| 154 | 11.6 | CC(C)Oc1ccc(-c2[nH]c3ncccc3c2Sc2ccc(Cl)cc2)cc1 [Example A17] |
| 18.3 | 2.84 | COC(=O)c1ccc(-c2[nH]c3ncccc3c2Sc2ccc(Cl)cc2)cc1 [Example A26] |
| 69.4 | 12.2 | N#Cc1ccccc1-c1[nH]c2ncccc2c1Sc1ccc(Cl)cc1 [Example F8] |
| 4160 | 238 | Cn1cc(-c2[nH]c3ncccc3c2Sc2ccc(Cl)cc2)cn1 [Example B20] |
| 10.3 | 2.34 | COc1ccc(-c2[nH]c3ncccc3c2Sc2ccc(Cl)cc2)cc1 [Example B8] |
| 12.4 | 4.22 | Cn1cccc2c(Sc3ccc(Cl)cc3)c(-c3ccc4[nH]ncc4c3)nc1-2 [Example E4] |
| 151 | 52.9 | COc1ccc(Cc2[nH]c3ncccc3c2Sc2ccc(Cl)cc2)cc1 [Example F2, 3-[(4-chlorophenyl)sulfanyl]-2-(4-methoxybenzyl)-1H-pyrrolo[2,3-b]pyridine] |
| 9.53 | 1.79 | OC1CC=C(c2[nH]c3ncccc3c2Sc2ccc(Cl)cc2)CC1 (centres unmarked) [Example B36] |
| 1390 | 317 | NC(=O)CCn1cccc2c(Sc3ccc(Cl)cc3)c(-c3ccc4c(c3)OCO4)nc1-2 [Example E21] |
| 9.93 | 7.08 | Cn1c2ncccc2c(Sc2ccc(Cl)cc2)c1[C@H]1CC[C@H](O)CC1 [Example E34] |
| 925 | 116 | Cn1cccc2c(Sc3ccc(Cl)cn3)c(-c3ccc(C(O)C(F)(F)F)cc3)nc1-2 (centres unmarked) [Example E14] |
| 352 | 22.5 | CC(O)C/C=C/c1[nH]c2ncccc2c1Sc1ccc(Cl)cc1 (centres unmarked) [Example B38] |
| 18.9 | 3.42 | COc1ccc(-c2[nH]c3ncccc3c2Sc2ccc(Cl)cc2)cn1 [Example B43] |
| 13.7 | 2.58 | Clc1ccc(Sc2c(-c3ccc4c(c3)OCO4)[nH]c3ncccc23)nc1 [Example B5, 2-(1,3-benzodioxol-5-yl)-3-[(5-chloropyridin-2-yl)sulfanyl]-1H-pyrrolo[2,3-b]pyridine] |
| 11.8 | 4.42 | Clc1ccc(Sc2c(-c3ccc4c(c3)OCCO4)[nH]c3ncccc23)cc1 [Example B6, 3-[(4-chlorophenyl)sulfanyl]-2-(2,3-dihydro-1,4-benzodioxin-6-yl)-1H-pyrrolo[2,3-b]pyridine] |
